Measurements: PubChem BioAssay (NCI)
Several values for one entry are separate records, joined by “and”; a condition that tells them apart may be missing. Equal entries are not always repeated.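 Cultured in 96-well plates, cells were exposed to test compound for 48 hours across five concentrations. Abbreviation: GI50, concentration required for 50% inhibition of growth. The concentration for full growth arrest is given as TGI.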

Legend:
Assay in all cases: growth of human tumour cells (NCI), 48 h
786-0 renal = test system: 786-0 renal
COLO 205 colon = test system: COLO 205 colon
HOP-62 NSCLC = test system: HOP-62 NSCLC
SK-OV-3 ovarian = test system: SK-OV-3 ovarian
RXF 393 renal = test system: RXF 393 renal
ACHN renal = test system: ACHN renal
CCRF-CEM leukemia = test system: CCRF-CEM leukemia
KM12 colon = test system: KM12 colon
IGROV1 ovarian = test system: IGROV1 ovarian
HL-60(TB) leukemia = test system: HL-60(TB) leukemia

SMILES	GI50 (786-0 renal) [µM]	TGI (786-0 renal)	GI50 (COLO 205 colon) [µM]	TGI (COLO 205 colon) [µM]	GI50 (HOP-62 NSCLC) [µM]	TGI (HOP-62 NSCLC) [µM]	GI50 (SK-OV-3 ovarian) [µM]	TGI (SK-OV-3 ovarian) [µM]	GI50 (RXF 393 renal) [µM]	TGI (RXF 393 renal)	GI50 (ACHN renal) [µM]	TGI (ACHN renal) [µM]	GI50 (CCRF-CEM leukemia) [µM]	TGI (CCRF-CEM leukemia) [µM]	GI50 (KM12 colon) [µM]	TGI (KM12 colon)	GI50 (IGROV1 ovarian) [µM]	TGI (IGROV1 ovarian) [µM]	TGI (HL-60(TB) leukemia) [µM]	GI50 (HL-60(TB) leukemia) [µM]
Oc1cn(-c2ccc(Cl)cc2)nc1-c1n[nH]c(=S)n1-c1ccc(F)cc1	28.1	> 100 µM	61.4	> 100	22.7	54.6	> 100	> 100	28	> 100 µM	28.8	> 100	7.29	> 100	13	> 100 µM	7.12	24.1		
Cc1nc2ccncc2[nH]1		> 100 µM		> 100		> 100				> 100 µM		> 100		> 100				> 100	> 100	
CC(C)(C)OC(=O)N[C@H]1CC(=O)c2ccccc2N(CC(=O)O)C1=O		> 100 µM		> 100		> 100		> 100		> 100 µM		> 100		> 100		> 100 µM		> 100	> 100	
CCOC(=O)C1=C(C)N(NC(N)=O)C2(N)N(NC(N)=O)C(C)=C(C(=O)OCC)C12C#N (centres undefined)		> 100 µM				> 100		> 100				> 100				> 100 µM		> 100		
CN(C)C1C(=O)C(C(N)=O)=C(O)C2(O)C(=O)C3=C(O)c4c(O)cccc4C(C)(O)C3CC12.[Cl][Sb]([Cl])[Cl] (centres undefined)	4.14	17.6 µM	2.94	9.17	4.66	15.5	3.79	14	3.03	10.7 µM	4.75	18.7	2.39	11.2	3.7	13.2 µM	2.96	8.5	9.9	4.01
O=C(CCCCN1CCN(CCCCC(=O)Nc2ccccc2C#C/C=C\C#Cc2ccccc2C(F)(F)F)CC1)Nc1ccccc1C#C/C=C\C#Cc1ccccc1C(F)(F)F	9.8	18.3 µM	38.3	> 50	12.2	32	18.7	> 50	9.81	23.5 µM	20.9	> 50	6.02	17	13.2	33 µM	9.37	26.2	24.6	11.9
Cc1ccc(-n2nc(C(OC3OC(CO)C(O)C(O)C3O)C(O)CO)c3nc4cc(C)c(C)cc4nc32)cc1 (centres undefined)		> 100 µM				> 100		> 100		> 100 µM		> 100		> 100		> 100 µM				
N#Cc1c(-c2ccccc2)c(-c2ccccc2)cc2c(=O)c3ccc(Cl)cc3[nH]c12		> 100 µM		> 100		> 100		> 100		> 100 µM		> 100		> 100				> 100	> 100	
CCOC(=O)c1cn(C)c2c(OC)c3ccccc3c(OC)c2c1=O	> 100	> 100 µM	63.8	> 100	33.3	82.7	77.1	> 100			46.8	> 100	34.1	> 100	19.7	48.3 µM	52.6	> 100	> 100	35.9
CCCCCCCCCCCCCCCC(=O)OCC1OC(n2cc(F)c(=O)[nH]c2=O)C(NC(=O)OCc2ccccc2)C(O)C1O (centres undefined)		36.2 µM		34				66				> 100		30		45 µM		46.6	43.1	
COc1ccc(/C=C/C(=O)c2c(-c3ccccc3)nn(C)c(=O)c2N2CCCCC2)cc1		38.2 µM		44				77.6		28 µM		> 100		40.2				77.9		
CC(=O)C1(C(=O)C(=[N+]=[N-])S(=O)(=O)c2ccccc2)CC1		> 100 µM		> 100		> 100				> 100 µM		> 100		> 100		> 100 µM		> 100	> 100	
O=C(O)c1ccccc1NCn1nc(-c2ccccc2O)oc1=S	35.4	> 100 µM	49.6	> 100	39	> 100			68.9	> 100 µM	26.9	82.8	10.6	36.4	> 100	> 100 µM	> 100	> 100	> 100	64.9
O=C1c2cccc3c(N4CCOCC4)ccc(c23)C(=O)N1CCN1CCN(CCCCCN2CCN(CCN3C(=O)c4cccc5c(N6CCOCC6)ccc(c45)C3=O)CC2)CC1	55.8	> 100 µM	46.1	> 100	52.3	> 100	> 100	> 100	59.8	> 100 µM	62.2	> 100	32.9	> 100					> 100	33.7
CC(C)c1ccc(Cc2ccc(C(C)C)c(NC(=O)C(=O)Cc3cnc4ccccc4n3)c2C(C)C)c(C(C)C)c1NC(=O)C(=O)Cc1cnc2ccccc2n1		> 100 µM		> 100		> 100		> 100				> 100		> 100		> 100 µM		> 100	> 100	
O=C([O-])c1ccc([I+]c2ccccc2)cc1		> 100 µM		> 100		> 100		> 100		> 100 µM				> 100		> 100 µM		> 100	> 100	
COc1ccc(-c2cnc(-c3ccncc3-c3cccc(OC)c3)o2)cc1	0.0627	15 µM	0.0375	1.23	0.0531	23.8	0.0424	17.1			0.138	14.7	0.0389	16	0.0471	1.82 µM	0.0754	18.4	0.0968	0.024
O=C(O)c1ccccc1C(=O)c1ccco1		> 100 µM		> 100		> 100				> 100 µM		> 100		> 100		> 100 µM		> 100	> 100	

SMILES	GI50 (786-0 renal) [µM]	TGI (786-0 renal)	GI50 (COLO 205 colon) [µM]	TGI (COLO 205 colon) [µM]	GI50 (HOP-62 NSCLC) [µM]	TGI (HOP-62 NSCLC) [µM]	GI50 (SK-OV-3 ovarian) [µM]	TGI (SK-OV-3 ovarian) [µM]	GI50 (RXF 393 renal) [µM]	TGI (RXF 393 renal)	GI50 (ACHN renal) [µM]	TGI (ACHN renal) [µM]	GI50 (CCRF-CEM leukemia) [µM]	TGI (CCRF-CEM leukemia) [µM]	GI50 (KM12 colon) [µM]	TGI (KM12 colon)	GI50 (IGROV1 ovarian) [µM]	TGI (IGROV1 ovarian) [µM]	TGI (HL-60(TB) leukemia) [µM]	GI50 (HL-60(TB) leukemia) [µM]
O=C1C=CC2(O)OCC3C=C4O[C@@H]5OC6(CCCCC6)O[C@@H]5C4[C@@H]2[C@@H]13 (some centres undefined)		41.2 µM		30.9		> 100		> 100				88.4		45.8		> 100 µM		> 100	42.1	
COS(=O)c1cc(Cl)cc(Cl)c1OC(=O)CSSCC(=O)Oc1c(Cl)cc(Cl)cc1S(=O)OC (centres undefined)		54.5 µM		44.8				80.7		43.7 µM		64.2		59.7		36.2 µM		46.5	52.9	
Cc1ccc(C(=O)Nc2ccc(Oc3cc4cnn(C)c4cc3-c3cn[nH]c3)c(F)c2)c(=O)n1-c1ccc(F)cc1	> 100	> 100 µM	5.36	> 100	> 37.9	> 100	> 100	> 100	2.23	> 100 µM	2.9	> 100	> 100	> 100	0.0304	> 100 µM	> 100	> 100		
C=C1C(=O)O[C@@H]2C[C@@]3(C)[C@H](O)CCC(=C)[C@@H]3C[C@H]12		21.6 µM		7.09		34		52.6				27.8		14.1		14.4 µM		45.2		
Nc1nc(-c2ccccc2)c(CC(=O)O)s1		> 100 µM		> 100		> 100		> 100		> 100 µM		> 100				> 100 µM		> 100	83.1	
COc1ccc([C@@]23Oc4cc(OC)cc(OC)c4[C@]2(O)[C@H](O)[C@H](C(=O)N(C)C)[C@H]3c2ccccc2)cc1	0.0287	0.159 µM and 0.0333 µM and 0.215 µM		0.0197	0.0152		0.0157		0.0178	0.0823 µM and 0.0262 µM and 0.0785 µM			0.0185			0.0892 µM and 0.281 µM	0.0248			
O=C(Nc1nc2ccc(S(=O)(=O)Nc3ccc(C4(C(F)(F)F)CC4)cc3)cc2[nH]1)c1cnccn1	2.77	12.6 µM	2.84	17.5	3.85	23			1.12	4.28 µM	4.39	18.2			1.03	14.4 µM	1.9	18.5		
C1CN2CCO[SiH](O1)OCC2		> 100 µM		> 100				> 100		> 100 µM		> 100		> 100		> 100 µM		> 100	> 100	
O=C(CI)NC(=O)NC(=O)NCc1ccccc1	1.98	4.18 µM	2.13	4.64	18.5	42	15.4	29	2.98	9.31 µM	1.95	3.76	0.51	2.14	10.9	24.9 µM	2.56	6.83		
NC1=NC(c2ccccc2Cl)c2c(n[nH]c2N)N1 (centres undefined)	9.18	> 100 µM	23.9	> 100	80.1	> 100	> 100	> 100	13.7	97.6 µM	34.6	> 100	4.59	> 100	29.4	> 100 µM	9.48	> 100		
N#CN1CC[C@H](C(=O)Nc2ncc(-c3ccccc3)s2)C1	0.404	2.48 µM	0.195	0.449	1.37	4.21	2.2	13.8			0.562	2.49	0.271	> 100	0.592	2.78 µM	0.449	5.59	0.652	0.269
CC(C)N(C(=O)C12C3C4C1C1C4(C#N)C3C12C(=O)O)C(C)C (centres undefined)		> 100 µM		> 100		> 100		> 100				> 100		> 82		> 100 µM		> 100	> 63	
O=C(Nc1ccccc1C(=O)NC(=O)c1ccccc1NC(=O)c1ccccc1)c1ccccc1		29.3 µM		2.87		36.4				9.15 µM		36.3		16.4		3.17 µM		5.93		
N#CC(C(=O)Nc1ccccc1)C1=C(Cl)C(=O)c2ccccc2C1=O (centres undefined)		27.7 µM		37.3		33.6		> 100		31.4 µM				> 100		50.7 µM		34.8	20.5	
COc1ccccc1/C=C(\NC(=O)c1ccccc1)c1nc2ccc(Cl)cc2[nH]1		87.1 µM		38.8				84		> 100 µM		67.8		> 100		> 100 µM		> 100		
Cc1ccc(S(=O)(=O)Nc2ccccc2C(C)(C)C)cc1		62.5 µM				45.9		81.3		26.8 µM		> 100		63.8		47.1 µM		> 100	44.7	
Cc1ccccc1Nc1cc(O)c2c(=O)cc(-c3ccccc3)oc2c1	4.42	> 100 µM			3.23	> 100	5.56	> 100	2.45	9.56 µM	4.25	> 100	2.25	> 100	2.38	> 100 µM	3.2	> 100	> 100	2.16
CCOC(=O)C[C@@]12CCCN[C@]1(C)CCc1ccccc12		> 100 µM				> 100		> 100		> 100 µM		> 100		> 100		> 100 µM		> 100	> 100	
